The test system of data set [1] is HaCaT cells. Put plainly: MTT assay, growth of human immortalized keratinocytes. Type of data set: cell-based. As for the experimental part: MTT assay: This calorimetric assay detects the formation of formazan which is proportional to the number of cells present. Tissue culture medium containing drugs was removed and 200 μl of DME containing 2 mg/ml MTT ((3-4, 5-dimethyl thiazol-2yl) 2,5-diphenyltetrazolium bromide) was added to each well. 96-well plates were incubated at 37 ° C., and 10% CO2 for 30 minutes. Medium containing MTT was then removed and the cells were washed once with PBS. Following removal of the PBS, 200 μL DMSO was added to each well and plates were placed on a rotating platform shaker for 5 minutes. Results were obtained by reading the absorbance at a wavelength of 550 nm using a spectrophotometer. Results are expressed as percentages setting the control as 100%.
FIG. 1 graphically depicts the results of growth assays performed on human immortalized keratinocytes (HaCaT cells), treated for three days with the indicated compounds. Drugs were added on the same day of plating (day 0). The MTT assay (to measure cell proliferation) was carried out on day 3. Various combinations of the drugs were used in the growth assays.
Cells were plated in wells on day 0. […] The MTT assay was carried out on day 3. Various combinations of the drugs were also used in the growth assays. […] Thus, the combinatorial activity of these two drugs must be explained via synergistic activity of this treatment.
Drugs were added on the same day of plating (day 0). The MTT assay (to measure cell proliferation) was carried out on the third day. […] Thus, this combinatorial activity of these two drugs must be explained via synergistic activity of this treatment.
In general terms: Tetrazolium dyes change colour on reduction, which living cells bring about.

Data set [2] has as its system HaCaT cells. Put plainly: BrdU incorporation assay. Type of data set: cell-based, human. The settings on record: VPA added day 0, assay day 2, FIG. 4. As for the experimental part: BrdU incorporation assays: Cell proliferation was detected by labeling cells with BrdU. […] Cells were incubated for 1 hour in the culture medium and then fixed with 70% ethanol. The incorporated BrdU was detected by the indirect immunoperoxidase method (Amersham, Arlington Heights, Ill.). Briefly, the culture cells were first incubated for 1 hour with Biotin-Mouse Anti-BrdU antibody. After washing in TTBS buffer (20 mM Tris, 500 mM NaCl, 0.05% Tween-20, pH 7.5), the cells were further incubated with Biotinylated goat anti-mouse immunoglobulins for 10 min. Cells were then washed and incubated with enzyme (peroxidase) conjugate for 10 min at room temperature. […] The positive cells were counted on 10 randomly picked microscopic fields. HaCaT cells were plated in 35 mm diameter wells on day 0. […] The BrdU assay was carried out on day 2.

A further data set deals with histone H4 acetylation. Put plainly: Immunohistochemistry of acetylated H4 after topical application to BCC lesions of patients. Type of data set: in vivo, human. The note with it: VPA 3% (w/w) topically 16-20 hours before surgical excision vs placebo; FIG. 10. As for the experimental part: Cryostat skin sections of 3 μm thickness were fixed in acetone at room temperature for 10 min. Before staining with anti-acetylated H4 antibody (clone T25, see above) the tissue was blocked by preincubation with F(ab′)2 fragments derived from goat anti-mouse immunoglobulin (Cappel) ( 1/10000 dilution in 50 mM Tris buffered saline, TBS) for 30 min. After rinsing with TBS for 10 min, the sections were incubated with anti-acetylated H4 antibody (clone T25) ( 1/4000 dilution in TBS) at room temperature for 1 hour. Then, the specimens were incubated with the rabbit anti-mouse serum and treated with APAAP (alkaline phosphatase anti-alkaline phosphatase) immunocomplex as described above. The positive staining was developed in red color with naphthol-AS-BI phosphate as a substrate, and New Fuchsin (Dako) as a chromogen. Pictures were taken with a digital camera connected to a light microscopy apparatus.
Skin biopsies were frozen in liquid nitrogen immediately after excision. Immunohistochemistry was then performed on 3 μm sections as described in methods. Biopsies of skin topically treated with Placebo or VPA were processed in parallel, pictures were taken with a light microscopy apparatus connected to a digital camera under the same light intensity.

Data set [3] has as its system inflammatory cytokines. The data set can be described thus: Semiquantitative RT-PCR of cytokine mRNA, LPS stimulated keratinocytes. Type of data set: cell-based, human. The settings on record: HaCaT, 200 nM TSA or 5 mM VPA 4 hours, then LPS 100 ng/ml 24 hours, FIG. 12A. As for the experimental part:
Human immortalized keratinocytes (HaCaT cells) were seeded at a density of 2.5 million cells per ml into 75 cm^2 flasks. […] After 24 hours at 37° C. cells were lysed and total RNA was isolated using the RNeasy mini kit from Qiagen.
(§1) One microgram of total RNA was transcribed to cDNA by standard methods using reverse transcriptase and an oligo-dT primer (Invitrogen). For semiquantitative PCR, 2 μl of cDNA was amplified by PCR using specific primers. Primers for PCR were synthesized by MWG and are as follows: […]

In data set [4] the test system is inflammatory cytokines. The data set can be described thus: Semiquantitative RT-PCR of cytokine mRNA, PMA/Ion stimulated peripheral blood lymphocytes. Type of data set: cell-based, human. The note with it: PBLs preincubated 2 hours, PMA/Ion 24 hours; FIGS. 12B, 13. As for the experimental part: Monocyte and macrophage depleted peripheral blood mononuclear cells were obtained from consenting adults via separation using Ficoll-Hypaque. The peripheral blood mononuclear cells (PBMC) fraction was washed and seeded in 9 cm petri dishes. After an incubation of 2 hours at 37° C. to remove most of the monocytes, macrophages, and B-cells, the non-adherent cells were collected and cultured in 175 cm^2 flasks for 2 days. Cells were harvested and adjusted to 3 million cells per ml. Aliquots of 500 μl were transferred to each well of 24-well flat bottom plates. Peripheral blood lymphocytes (PBL's) were treated with various concentrations of HDAC inhibitors as indicated. After a 2 hours incubation time at 37° C. cells were stimulated with phorbol 12-myristate 13-acetate (PMA)/ionomycin (Ion) or activated via T cell receptor (TCR/CD3) complex with 10 μg/ml anti-CD3 mAb (OKT3) and 2.5 μg/ml anti-CD28 mAb. After 24 hours at 37° C. the supernatant was removed and frozen for cytokine assays. Cell pellets were lysed and total RNA was isolated using the RNeasy mini kit from Qiagen.
as §1

The subject of another data set is IL-2 and TNF-α. The data set can be described thus: ELISA of IL-2 and TNF-α, blood cells of VPA treated patient stimulated with CD3/CD28. Type of data set: in vivo, human. The note with it: CD3/CD28 stimulated 24 hours. As for the experimental part: The cells were either left unstimulated or stimulated with CD3 and CD28 antibodies. After 24 hours at 37° C. the supernatant was collected and the secretion of IL-2 and TNF-α was quantified by ELISA (R&D Systems) (FIGS. 19A and B).

For data set [5], the system named is inflammatory cytokines. The data set can be described thus: RT-PCR of cytokine mRNA, blood cells of VPA treated patient stimulated with CD3/CD28. Type of data set: in vivo, human. As for the experimental part: Total RNA from unstimulated and CD3/CD28 stimulated cells was isolated using the RNeasy mini kit (Qiagen). One microgram of total RNA was converted to cDNA by standard methods using reverse transcriptase and an oligo-dT primer (Invitrogen). For semiquantitative PCR, 2 μl of cDNA were amplified by PCR using the specific primers as described above (FIG. 19C).

A further data set deals with mouse embryos. The settings on record: mice, when properly dosed; cited from earlier work.
Setting [6] is: vs untreated stimulated control.
Setting [7] is: starting at 24 hours of VPA treatment.

As to `CCCC(CCC)C(=O)O` [VPA, 2-propyl-pentanoic acid], the “cell growth (MTT assay)” value with HaCaT cells [1] (MTT on day 3, combinations VPA 1 mM + Retinoic Acid 1 or 2 μM, FIG. 2) is given as “inhibited growth”. For the same compound, in the data set on HaCaT cells [1] (MTT on the third day, 5 μM or 10 μM 5-FU and 1 mM VPA, FIG. 3), the “cell growth (MTT assay)” value is on record as “inhibited growth”. In the data set with HaCaT cells [1] (treated three days, MTT on day 3, combinations VPA 1 mM + Tazarotene 1 or 2 μM, FIG. 1), the “cell growth (MTT assay)” value was “inhibited cell growth”. Also, in the data set on HaCaT cells [2], the “BrdU positive cells (cell cycle arrest)” value is listed as “dose-dependent reduction of BrdU positive cells”. Moreover, the “histone H4 acetylation in BCC cells and normal skin cells of patients” value with histone H4 acetylation is “clear increase of histone H4 acetylation”. Further, the “IFN-γ mRNA transcript” value in the data set on inflammatory cytokines [3] is “significantly reduced”. In the data set with inflammatory cytokines [3] (setting [6]), the “IL-6 mRNA level” value is “significant decrease” and the “TNF-α mRNA level” value was “significant decrease”. In the data set on inflammatory cytokines [4], the “IL-4 mRNA transcripts” value is recorded as “significantly reduced” and the “IL-6 mRNA transcripts” value is recorded as “decreased IL-6 mRNA back to the level seen in the unstimulated sample”. Besides, in the data set with IL-2 and TNF-α, the “IL-2 in culture supernatant (ELISA)” value is reported as “modulates the expression” and the “TNF-α in culture supernatant (ELISA)” value is given as “modulates the expression”. Moreover, in the data set on inflammatory cytokines [5] (CD3/CD28 stimulated), the “IL-2 mRNA transcripts” value was “decrease” and the “TNF-α mRNA transcripts” value is listed as “decrease”. Besides, in the data set with inflammatory cytokines [5] (setting [7]), the “IFN-γ mRNA expression” value is given as “significantly reduced” and the “IL-4 mRNA expression” value is “significantly reduced”. Moreover, the teratogenicity result in the data set on mouse embryos is “teratogenic in the majority of mouse embryos”.

The values are drawn from patent US20060160897A1, “Topical Use of Valproic Acid for the Prevention or Treatment of Skin Disorders” (priority 2003, published 2006).
